Data on 28 compounds can be found in patent publication US20150225369A1, “DDR2 INHIBITORS FOR THE TREATMENT OF OSTEOARTHRITIS” (Merck Patent GmbH, priority 2012, published 2015).

As a reminder, the IC50 is the midpoint of a concentration-inhibition curve.

For the first assay, the target named is T1, HEK293 transfected with human DDR2 (Homo sapiens, UniProt Q16832).
T1 construct: expressed in transfected cells; host or cells: HEK293 (PLT460F_(DDR2)-P7-1)
T1 sequence (Q16832 22-855): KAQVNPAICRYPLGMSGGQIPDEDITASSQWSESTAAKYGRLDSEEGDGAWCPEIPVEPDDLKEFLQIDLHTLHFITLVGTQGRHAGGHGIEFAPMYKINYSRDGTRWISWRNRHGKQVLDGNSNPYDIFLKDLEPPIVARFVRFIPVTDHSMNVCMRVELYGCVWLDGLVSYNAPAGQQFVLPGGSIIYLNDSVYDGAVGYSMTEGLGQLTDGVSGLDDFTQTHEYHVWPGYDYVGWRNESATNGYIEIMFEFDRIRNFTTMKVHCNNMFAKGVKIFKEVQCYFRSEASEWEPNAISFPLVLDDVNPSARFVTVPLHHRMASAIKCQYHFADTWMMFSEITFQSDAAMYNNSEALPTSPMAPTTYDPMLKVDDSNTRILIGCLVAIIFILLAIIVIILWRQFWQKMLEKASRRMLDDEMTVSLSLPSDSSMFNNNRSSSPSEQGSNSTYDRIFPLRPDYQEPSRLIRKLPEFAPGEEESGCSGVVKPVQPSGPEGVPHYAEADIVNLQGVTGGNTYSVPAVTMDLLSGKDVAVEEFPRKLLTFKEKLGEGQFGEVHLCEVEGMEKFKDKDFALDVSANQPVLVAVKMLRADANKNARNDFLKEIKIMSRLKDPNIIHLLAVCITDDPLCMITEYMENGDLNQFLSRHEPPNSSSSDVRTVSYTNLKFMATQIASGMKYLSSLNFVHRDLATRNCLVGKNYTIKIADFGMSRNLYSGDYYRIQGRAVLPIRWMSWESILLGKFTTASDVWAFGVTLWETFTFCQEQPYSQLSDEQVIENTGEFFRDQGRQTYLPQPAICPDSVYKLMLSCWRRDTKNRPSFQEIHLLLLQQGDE
The assay can be described thus: Phospho-DDR2 cellular assay (collagen II induced DDR2 phosphorylation, ELISA). The format is cell-based. The conditions noted are these: HEK293 transfected with human DDR2, 50 μg/ml chicken collagen II, 16 h; read-out: IC50 [p-DDR2]. As for the experimental part: Assays were performed in a 384 well plate format, using cell line HEK293 transfected with human DDR2 (PLT460F_(DDR2)-P7-1)
Cells were seeded at a density of 10'000 cells/well in 384well poly-D-lysine coated Black/clear plate (Cellcoat Greiner) and incubated in DMEM medium in the presence of 10% fetal bovine serum at 37° C., 5% CO2 for 48 h. Medium was replaced by serum-free medium and cells were incubated at 37° C., 5% CO2 for 8 h. Compound to be tested in 5% DMSO or 5% DMSO and 50 μg/ml of chicken collagen II were added and cells were incubated at 37° C., 5% CO2 for 16 h
Cells were rinsed with ice-cold PBS, lysed with lysis buffer (M-PER Thermo #78501) for 30 min at room temperature and centrifuged for 1 min at 1000 RPM. In parallel, White High binding 384 well plates (Corning) were coated with mouse anti-human DDR2 capture antibody (R&D Systems kit DuoSet IC Human phospho-DDR2 ELISA), overnight at RT.
An aliquot of cell lysate was transferred to the coated plates and incubated for 2 h at RT. Plates were washed and mouse anti-phospho-tyrosine detection antibody (R&D Systems kit DuoSet IC Human phospho-DDR2 ELISA) conjugated to horse radish peroxidase (HRP) was added for 2 h at RT. Plates were washed and chemiluminescent substrate for HRP (Thermo) was added for 15 min at RT. Luminescence was measured on a luminometer.
For orientation: ELISA stands for enzyme-linked immunosorbent assay.
With `Cn1cc(C(F)(F)F)cc(NC(=O)NCc2ccc(Oc3ccnc4c3CNC(=O)N4)cc2)c1=O` [compound 5], the IC50 is 5.9 nM.

Staying with this assay, now noted: cellular phospho-DDR2; read-out: IC50 [p-DDR2].
As for `CNC(=O)c1cc(Oc2ccc(CNC(=O)Nc3ccc(Cl)c(Cl)c3)cc2)ccn1` [compound 3], the IC50 was 195 nM.

For `CNC(=O)c1cc(Oc2ccc(CNC(=O)Nc3ccc(Cl)cc3Cl)cc2)ccn1` [compound 8], the IC50 came out at 255 nM.

On to `CNC(=O)c1cc(Oc2ccc(CNC(=O)Nc3ccc(F)cc3)cc2)ccn1` [compound 12], for which the IC50 was 775 nM.

`CNC(=O)c1cc(Oc2ccc(CNC(=O)Nc3cc(Cl)c(Cl)cc3Cl)cc2)ccn1` [compound 23]: the IC50 came out at 100 nM.

For `CNC(=O)c1cc(Oc2ccc(CNC(=O)Nc3cc(Cl)cc(Cl)c3)cc2)ccn1` [compound 31], the IC50 is 175 nM.

Turning to `CNC(=O)c1cc(Oc2ccc(CNC(=O)Nc3ccc(OC)c(Cl)c3)cc2)ccn1` [compound 39, 4-{4-[3-(3-Chloro-4-methoxy-phenyl)-ureidomethyl]-phenoxy}-pyridine-2-carboxylic acid methylamide], the IC50 was determined as 64 nM.

As for `CNC(=O)c1cc(Oc2ccc(CNC(=O)Nc3cc(Cl)ccc3C)cc2)ccn1` [compound 42, 4-{4-[3-(5-Chloro-2-methyl-phenyl)-ureidomethyl]-phenoxy}-pyridine-2-carboxylic acid methylamide], the IC50 is 230 nM.

Take `CNC(=O)c1cc(Oc2ccc(C(C)NC(=O)Nc3cc(Cl)c(Cl)cc3Cl)cc2)ccn1` (stereo not shown) [compound 70, 4-(4-{1-[3-(2,4,5-Trichloro-phenyl)-ureido]-ethyl}-phenoxy)-pyridine-2-carboxylic acid methylamide]: the IC50 worked out at 735 nM.

For the compound `CNC(=O)c1cc(Oc2ccc(C(C)NC(=O)Nc3ccc(Cl)c(Cl)c3)cc2)ccn1` (stereo not shown) [compound 71, 4-(4-{1-[3-(3,4-Dichloro-phenyl)-ureido]-ethyl}-phenoxy)-pyridine-2-carboxylic acid methylamide], the IC50 turned out to be 1800 nM.

On to `CNC(=O)c1cc(Oc2ccc(C(C)NC(=O)Nc3ccc(C)c(Cl)c3)cc2)ccn1` (stereo not shown) [compound 73, 4-(4-{1-[3-(3-Chloro-4-methyl-phenyl)-ureido]-ethyl}-phenoxy)-pyridine-2-carboxylic acid methylamide], for which the IC50 is 1750 nM.

Consider `CNC(=O)c1cc(Oc2ccc(CNC(=O)Nc3ccc(Cl)c(C)c3)cc2)ccn1` [compound 74, 4-{4-[3-(4-Chloro-3-methyl-phenyl)-ureidomethyl]-phenoxy}-pyridine-2-carboxylic acid methylamide], for which the IC50 came to 175 nM.

`CNC(=O)c1cc(Oc2ccc(CNC(=O)Nc3ccc4nsnc4c3)cc2)ccn1` [compound 76, 4-{4-[(3-Benzo[1,2,5]thiadiazol-5-yl-ureido)-methyl]-phenoxy}-pyridine-2-carboxylic acid methylamide]: the IC50 is 670 nM.

Turning to `CNC(=O)c1cc(Oc2ccc(CNC(=O)Nc3cc(OC)c(OC)c(OC)c3)cc2)ccn1` [compound 80, 4-{4-[3-(3,4,5-Trimethoxy-phenyl)-ureidomethyl]-phenoxy}-pyridine-2-carboxylic acid methylamide], the IC50 worked out at 750 nM.

As to `O=C(NCc1ccc(Oc2ccnc(C(=O)O)c2)cc1)Nc1ccc(Cl)c(C(F)(F)F)c1` [compound 99, 4-{4-[3-(4-Chloro-3-trifluoromethyl-phenyl)-ureidomethyl]-phenoxy}-pyridine-2-carboxylic acid], the IC50 stood at 2850 nM.

`CNC(=O)c1cc(Oc2ccc(CNC(=O)Nc3cc(C(F)(F)F)ccc3N3CCNCC3)cc2)ccn1` [compound 122, 4-{4-[3-(2-Piperazin-1-yl-5-trifluoromethyl-phenyl)-ureidomethyl]-phenoxy}-pyridine-2-carboxylic acid methylamide]: the IC50 worked out at 135 nM.

Consider `CNC(=O)c1cc(Oc2ccc(CNC(=O)Nc3cccc(S(C)(=O)=O)c3)cc2)ccn1` [compound 135, 4-{4-[3-(3-Methanesulfonyl-phenyl)-ureidomethyl]-phenoxy}-pyridine-2-carboxylic acid methylamide], for which the IC50 worked out at 390 nM.

Turning to `NCCNC(=O)c1cc(Oc2ccc(CNC(=O)Nc3ccc(Cl)c(C(F)(F)F)c3)cc2)ccn1` [compound 148, 4-{4-[3-(4-Chloro-3-trifluoromethyl-phenyl)-ureidomethyl]-phenoxy}-pyridine-2-carboxylic acid (2-amino-ethyl)-amide], the IC50 came to 785 nM.

Consider `CNCCNC(=O)c1cc(Oc2ccc(CNC(=O)Nc3ccc(Cl)c(C(F)(F)F)c3)cc2)ccn1` [compound 149, 4-{4-[3-(4-Chloro-3-trifluoromethyl-phenyl)-ureidomethyl]-phenoxy}-pyridine-2-carboxylic acid (2-methylamino-ethyl)-amide], for which the IC50 was found to be 925 nM.

Take `CNC(=O)c1cc(Oc2ccc(CNC(=O)Nc3cccc(S(C)(=O)=O)c3)cc2C)ccn1` [compound 154, 4-{4-[3-(3-Methanesulfonyl-phenyl)-ureidomethyl]-2-methyl-phenoxy}-pyridine-2-carboxylic acid methylamide]: the IC50 amounted to 1250 nM.

As to `CNC(=O)c1cc(Oc2ccc(CNC(=O)Nc3cccc(S(N)(=O)=O)c3)cc2)ccn1` [compound 157, 4-{4-[3-(3-Sulfamoyl-phenyl)-ureidomethyl]-phenoxy}-pyridine-2-carboxylic acid methylamide], the IC50 was determined as 500 nM.

As for `CNC(=O)c1cc(Oc2ccc(CNC(=O)Nc3cccc(S(=O)(=O)NC(C)C)c3)cc2)ccn1` [compound 158, 4-{4-[3-(3-Isopropylsulfamoyl-phenyl)-ureidomethyl]-phenoxy}-pyridine-2-carboxylic acid methylamide], the IC50 stood at 100000 nM.

Take `CNC(=O)c1cc(Oc2ccc(CNC(=O)Nc3cc(C)c(Cl)cc3N(C)CCN(C)C)cc2)ccn1` [compound 162, 4-[4-(3-{4-Chloro-2-[(2-dimethylamino-ethyl)-methyl-amino]-5-methyl-phenyl}-ureidomethyl)-phenoxy]-pyridine-2-carboxylic acid methylamide]: the IC50 is 1600 nM.

As for `CNC(=O)c1cc(Oc2ccc(CNC(=O)Nc3cc(C)c(Cl)cc3N(C)CCN(C)C)cc2C)ccn1` [compound 164, 4-[4-(3-{4-Chloro-2-[(2-dimethylamino-ethyl)-methyl-amino]-5-methyl-phenyl}-ureidomethyl)-2-methyl-phenoxy]-pyridine-2-carboxylic acid methylamide], the IC50 was 300 nM.

Consider `CNC(=O)c1cc(Oc2ccc(CNC(=O)Nc3cccc(NS(C)(=O)=O)c3)cc2C)ccn1` [compound 167, 4-{4-[3-(3-Methanesulfonylamino-phenyl)-ureidomethyl]-2-methyl-phenoxy}-pyridine-2-carboxylic acid methylamide], for which the half-maximal inhibitory concentration (IC50) came out at 1500 nM.

For the compound `CNC(=O)c1cc(Oc2ccc(CNC(=O)Nc3cc(C(F)(F)F)ccc3CCN)cc2)ccn1` [compound 175, 4-(4-{3-[2-(2-Amino-ethyl)-5-trifluoromethyl-phenyl]-ureidomethyl}-phenoxy)-pyridine-2-carboxylic acid methylamide], the IC50 was determined as 1300 nM.

For `CNC(=O)c1cc(Oc2ccc(CNC(=O)Nc3cc(C(F)(F)F)ccc3N3CCNCC3)cc2C)ccn1` [compound 184, 4-{2-Methyl-4-[3-(2-piperazin-1-yl-5-trifluoromethyl-phenyl)-ureidomethyl]-phenoxy}-pyridine-2-carboxylic acid methylamide], the IC50 stood at 76 nM.

On to `CNC(=O)c1cc(Oc2ccc(CNC(=O)Nc3cc(C)c(Cl)cc3NC(C)=O)cc2C)ccn1` [compound 186, 4-{4-[3-(2-Acetylamino-4-chloro-5-methyl-phenyl)-ureidomethyl]-2-methyl-phenoxy}-pyridine-2-carboxylic acid methylamide], for which the IC50 came to 330 nM.
